The values that follow come from patent publication US8044036B2 (priority 2005, dated 2011).

The subject of one assay is Septoria tritici. Nature of the assay: Septoria tritici test (in vitro)/microtitre plates. In kind it is cell-based. As to conditions: application rate 0.3 ppm; 5 days incubation in PDB; 100% = no fungal growth.
The subject of another assay is Pyricularia oryzae. In kind it is cell-based. The following applies: application rate 3 ppm; 5 days incubation in PDB; 100% = no fungal growth.

Take `OC(Cc1ccccc1Cl)(Cn1nc[nH]c1=S)C1(Cl)CC1` (racemic) [prothioconazole, 2-[(2RS)-2-(1-chlorocyclopropyl)-3-(2-chlorophenyl)-2-hydroxy-propyl]-2H-1,2,4-triazole-3(4H)thione]: the results for the “Efficacy in % found” value in the assay on Septoria tritici and in the assay on Pyricularia oryzae were 21% and 23%, respectively.
The matching figures for `C=CCNC(=O)c1c([Si](C)(C)C)sc(C)c1C` [silthiofam, N-alkyl-4,5-dimethyl-2-(trimethylsilyl)thiophene-3-carboxamide]: 10% and 29%.
